Assay results: patent US20240116926A1, “HETEROAROMATIC COMPOUNDS” (AstraZeneca AB, priority 2022, published 2024)
Values after ≈ are worked out from the molar mass of the structure shown.

Key:
MCF7-Tead cell line = experiment: TEAD reporter assay; format: cell-based; settings: MCF7-Tead cells, luciferase activity after 24 hours
Description: (§1) MCF7-Tead cell line was obtained from BPS BIOSCIENCE (catalog number 60618) and was maintained in DMEM containing 10% fetal calf serum, 2 mM glutamine, and 400 μg/ml G418. Cells were grown in a humidified incubator at 37° C. with 5% CO2. Cells were distributed to flat bottom white polystyrene TC treated 384 well plates at a density of 3,500 cells/well in 30 uL. Cells were incubated for 24 hours at 37° C. with 5% CO2. Cells were acoustically dosed using an Echo 555, with compounds serially diluted in 100% DMSO. Plates were incubated for an additional 24 hours. Cells were examined for luciferase activity through the addition of 30 μL Bright-Glo luciferase (Promega catalog number E2620). Plates were incubated for 10 minutes at room temperature and luminescence was read using Tecan plate reader. The data obtained with each compound was exported to […] software to perform curve fitting analysis.

[1] = test system: MCF7-Luciferase cell line; experiment: Control reporter (MCF7-Luciferase); format: cell-based; settings: MCF7-Luciferase cells, luciferase activity after 24 hours
Description: (iii) Control Reporter (MCF7-Luciferase)
as §1, with “MCF7-Luciferase” for “MCF7-Tead”, “BPS BIOSCIENCE” left out, “SC050-L)” for “60618)”, “glutamine.” for “glutamine, and 400 μg/ml G418.”, “μL.” for “uL.”

[2] = Solubility (thermodynamic, shake-flask); format: physicochemical; settings: thermodynamic from solid; aqueous phosphate buffer (pH 7.4), 24 hours at 25° C.
Description: The thermodynamic solubility of a research compound is measured under standard conditions. It is a shake-flask approach that uses 10 mM DMSO solutions which are supplied from the Compound Managements liquid store and is a high throughput method. The dried compounds are equilibrated in an aqueous phosphate buffer (pH 7.4) for 24 hours at 25° C., the portion with the dissolved compound is then separated from the remains. The solutions are analyzed and quantified using UPLC/MS/MS, QC-samples are incorporated in each assay-run to ensure the quality of the assay.

TEAD4(217-434) = TEAD4(217-434) (Homo sapiens (Human), UniProt Q15561); experiment: TEAD4 FRET; format: binding; settings: depalmitoylated, biotinylated TEAD4(217-434), FAM labelled Probe A, 120 min at 25° C.
TEAD4(217-434), sequence (Q15561 217-434): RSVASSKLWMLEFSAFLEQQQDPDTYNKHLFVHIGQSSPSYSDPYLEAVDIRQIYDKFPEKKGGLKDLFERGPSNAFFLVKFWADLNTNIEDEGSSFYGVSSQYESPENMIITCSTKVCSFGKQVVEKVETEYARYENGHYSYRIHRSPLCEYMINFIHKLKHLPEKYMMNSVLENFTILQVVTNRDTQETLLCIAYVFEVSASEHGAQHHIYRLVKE
Description: Compounds were dosed with a final DMSO concentration of 1% (v/v). Compound IC50 values were assessed following a 10-point, half-log10 dilution schema starting at 100 μM compound concentration. Specifically, human TEAD protein from TEAD4(217-434) was cloned into an overexpression vector, expressed as an N-terminal HIS-TEV-Avi-tagged fusion protein in E coli, and subsequently purified, then protein was chemically depalmitoylated & biotinylated. The assay was performed in 384-well LV plates (384-well black, medium binding, PS, HIBASE, GREINER #784076) and run in the presence and absence of the compound of interest. Each well of 5 μL assay mixture contained 10 mM Tris-HCl (pH 7.5), 100 mM NaCl, 0.05 mM EDTA, 1 mM TECP, 1% DMSO, 0.03% Pluronic acid F127, 20 nM dePal Avi TEAD4 (217-434)-depalmitoylated & biotinylated protein, 0.8 nM Streptavidin Terbium cryptate (CisBio #610SATLB), 625 nM FAM labelled Probe A. Reactions were incubated at 25° C. for 120 min before reading on a PHERASTAR FSX Plate Reader (337 520 490 HTRF module required) (Supplier BMP).
The data file from the PHERAstar FSX contains both the acceptor (520 nm) and donor channels (490 nm) (“Channel A”=acceptor channel (520 nm), “Channel B”=donor channel (490 nm)). The ratio of the donor and acceptor (Channel A/Channel B) is calculated within Genedata Assay Analyzer.
Probe A is 3′,6′-dihydroxy-3-oxo-N-{8-[2-(5-{2-[4-(trifluoromethyl)anilino]phenyl}-2H-tetrazol-2-yl)acetamido]octyl}-3H-spiro[[2]benzofuran-1,9′-xanthene]-5-carboxamide;

IC50 (MCF7-Tead cell line)	IC50 [1]	solubility at 24 h [2]	IC50 (TEAD4(217-434))	Compound
592 nM	> 31700 nM			C=CC(=O)N1CC[C@@H](Nc2ncc(-c3ccc(C(F)(F)F)cn3)c3ncccc23)C1 [Comparative Example A, (R)-1-(3-((8-(5-(trifluoromethyl)pyridin-2-yl)-1,6-naphthyridin-5-yl)amino)pyrrolidin-1-yl)prop-2-en-1-one, reference compound]
22 nM	12900 nM	188 µM (≈ 81.1 µg/mL)	56 nM	C=CC(=O)N1C[C@H](F)[C@H](Nc2nnc(-c3ccc(C(F)(F)F)cc3)c3cccnc23)C1 [Example 2, 1-((3S,4R)-3-fluoro-4-((5-(4-(trifluoromethyl)phenyl)pyrido[2,3-d]pyridazin-8-yl)amino)pyrrolidin-1-yl)prop-2-en-1-one]
58 nM	31100 nM	534 µM (≈ 243 µg/mL)	73 nM	C=CC(=O)N1C[C@H](Nc2nnc(-c3ccc(C(F)(F)F)cc3)c3ccccc23)[C@@H](C(N)=O)C1 (single isomer, unassigned; enantiomer 1) [Example 31, enantiomer 1 of trans-1-acryloyl-4-((4-(4-(trifluoromethyl)phenyl)phthalazin-1-yl)amino)pyrrolidine-3-carboxamide]
11 nM	> 31700 nM	82 µM (≈ 35.4 µg/mL)		C=CC(=O)N1C[C@H](F)[C@H](Nc2ncc(-c3ccc(C(F)(F)F)cn3)c3ncccc23)C1 [Example 36, 1-((3S,4R)-3-fluoro-4-((8-(5-(trifluoromethyl)pyridin-2-yl)-1,6-naphthyridin-5-yl)amino)pyrrolidin-1-yl)prop-2-en-1-one]
192 nM	26000 nM	230 µM (≈ 99.2 µg/mL)	410 nM	C=CC(=O)N1C[C@@H](F)[C@H](Nc2nnc(-c3ccc(C(F)(F)F)cc3)c3cccnc23)C1 [Example 4, 1-((3R,4R)-3-fluoro-4-((5-(4-(trifluoromethyl)phenyl)pyrido[2,3-d]pyridazin-8-yl)amino)pyrrolidin-1-yl)prop-2-en-1-one]
67 nM	27300 nM	209 µM (≈ 90.2 µg/mL)	93 nM	C=CC(=O)N1C[C@H](F)[C@H](Nc2nnc(-c3ccc(C(F)(F)F)cc3)c3ncccc23)C1 [Example 1, 1-((3S,4R)-3-fluoro-4-((8-(4-(trifluoromethyl)phenyl)pyrido[2,3-d]pyridazin-5-yl)amino)pyrrolidin-1-yl)prop-2-en-1-one]
515 nM	977 nM	38 µM (≈ 15.6 µg/mL)		C#CC(=O)N1CC[C@H](Nc2nnc(-c3ccc(C(F)(F)F)cc3)c3ccccc23)C1 [Example 19, (S)-1-(3-((4-(4-(trifluoromethyl)phenyl)phthalazin-1-yl)amino)pyrrolidin-1-yl)prop-2-yn-1-one]
34 nM	> 31700 nM	801 µM (≈ 344 µg/mL)	79 nM	C=CC(=O)N1C[C@H](O)[C@H](Nc2ncc(-c3ccc(C(F)(F)F)cn3)c3ncccc23)C1 [Example 35, 1-((3S,4R)-3-hydroxy-4-((8-(5-(trifluoromethyl)pyridin-2-yl)-1,6-naphthyridin-5-yl)amino)pyrrolidin-1-yl)prop-2-en-1-one]
11 nM	13300 nM	16 µM (≈ 6.9 µg/mL)	12 nM	C=CC(=O)N1C[C@H](F)[C@H](Nc2ncc(-c3ccc(C(F)(F)F)cc3)c3nccnc23)C1 [Example 43, 1-((3S,4R)-3-fluoro-4-((8-(4-(trifluoromethyl)phenyl)pyrido[3,4-b]pyrazin-5-yl)amino)pyrrolidin-1-yl)prop-2-en-1-one]
94 nM	22200 nM	7 µM (≈ 3.06 µg/mL)		C=CC(=O)N1C[C@H](C#N)[C@H](Nc2nnc(-c3ccc(C(F)(F)F)cc3)c3ccccc23)C1 (single isomer, unassigned; enantiomer 1) [Example 29, enantiomer 1 of cis-1-acryloyl-4-((4-(4-(trifluoromethyl)phenyl)phthalazin-1-yl)amino)pyrrolidine-3-carbonitrile]
15 nM	15600 nM	67 µM (≈ 28.8 µg/mL)	32 nM	C=CC(=O)N1C[C@H](F)[C@H](Nc2nnc(-c3ccc(C(F)(F)F)cc3)c3ccccc23)C1 [Example 10, 1-((3S,4R)-3-fluoro-4-((4-(4-(trifluoromethyl)phenyl)phthalazin-1-yl)amino)pyrrolidin-1-yl)prop-2-en-1-one]
9 nM	> 31700 nM	44 µM (≈ 18.9 µg/mL)	17 nM	C=CC(=O)N1C[C@H](O)[C@H](Nc2ncc(-c3ccc(C(F)(F)F)cc3)c3ncccc23)C1 [Example 34, 1-((3S,4R)-3-hydroxy-4-((8-(4-(trifluoromethyl)phenyl)-1,6-naphthyridin-5-yl)amino)pyrrolidin-1-yl)prop-2-en-1-one]
929 nM	15100 nM	34 µM (≈ 15.2 µg/mL)	42 nM	C=CS(=O)(=O)N1CC[C@H](Nc2nnc(-c3ccc(C(F)(F)F)cc3)c3ccccc23)C1 [Example 21, (S)-4-(4-(trifluoromethyl)phenyl)-N-(1-(vinylsulfonyl)pyrrolidin-3-yl)phthalazin-1-amine]
143 nM	13000 nM	191 µM (≈ 83.5 µg/mL)	100 nM	C=CC(=O)N1CC(C#N)[C@@H](Nc2nnc(-c3ccc(C(F)(F)F)cc3)c3ccccc23)C1 (single isomer, unassigned; enantiomer 1) [Example 30, enantiomer 1 of trans-1-acryloyl-4-((4-(4-(trifluoromethyl)phenyl)phthalazin-1-yl)amino)pyrrolidine-3-carbonitrile]
22 nM	18000 nM	3 µM (≈ 1.29 µg/mL)	16 nM	C=CC(=O)N1C[C@H](F)[C@H](Nc2ncc(-c3ccc(C(F)(F)F)cc3)c3ncccc23)C1 [Example 44, 1-((3S,4R)-3-fluoro-4-((8-(4-(trifluoromethyl)phenyl)-1,6-naphthyridin-5-yl)amino)pyrrolidin-1-yl)prop-2-en-1-one]
99 nM	23500 nM	370 µM (≈ 159 µg/mL)	52 nM	C=CC(=O)N1C[C@H](O)[C@H](Nc2nnc(-c3ccc(C(F)(F)F)cc3)c3ccccc23)C1 [Example 12, 1-((3S,4R)-3-hydroxy-4-((4-(4-(trifluoromethyl)phenyl)phthalazin-1-yl)amino)pyrrolidin-1-yl)prop-2-en-1-one]
283 nM	19400 nM		830 nM	C=CC(=O)N1C[C@@H](CN(C)C)[C@H](Nc2nnc(-c3ccc(C(F)(F)F)cc3)c3ccccc23)C1 [Example 46, 1-((3R,4S)-3-((dimethylamino)methyl)-4-((4-(4-(trifluoromethyl)phenyl)phthalazin-1-yl)amino)pyrrolidin-1-yl)prop-2-en-1-one]
156 nM	10200 nM	9 µM (≈ 3.87 µg/mL)	33 nM	C=CC(=O)N1C[C@@H](F)[C@H](Nc2nnc(-c3ccc(C(F)(F)F)cc3)c3ccccc23)C1 [Example 11, 1-((3R,4R)-3-fluoro-4-((4-(4-(trifluoromethyl)phenyl)phthalazin-1-yl)amino)pyrrolidin-1-yl)prop-2-en-1-one]
